# Patent US8536351B2, “2-aryl-5-heterocyclyl-cyclohexane-1,3,dione compounds and their use as herbicides” (Syngenta Crop Protection LLC, priority 2007, dated 2013)
# Key:
# Assay type in all cases: in vivo
# [1] = test system: Alopecurus myosuroides (ALOMY); assay: Pre-emergence activity, glasshouse pot test (100=total damage to plant; 0=no damage to plant); details: rate 500 g/ha, evaluated 19, 20 or 21 days after spraying
# Procedure: (§1) Monocotyledonous and dicotyledonous test plants were sown in standard soil in pots. After cultivation for one day (pre-emergence) or after 10 days cultivation (post-emergence) under controlled conditions in a glasshouse, the plants were sprayed with an aqueous spray solution derived from the formulation of the technical active ingredient in 0.6 ml acetone and 45 ml formulation solution containing 10.6% Emulsogen EL (Registry number 61791-12-6), 42.2% N-methyl pyrrolidone, 42.2% dipropylene glycol monomethyl ether (Registry number 34590-94-8) and 0.2% X-77 (Registry number 11097-66-8). The test plants were then grown in a greenhouse under optimum conditions until, 14 or 15 days later for post-emergence and 19, 20 or 21 days for pre-emergence, the test was evaluated (100=total damage to plant; 0=no damage to plant). Alopecurus myosuroides (ALOMY), Avena fatua (AVEFA), Lolium perenne (LOLPE), Setaria faberi (SETFA), Digitaria sanguinalis (DIGSA), Echinochloa crus-galli (ECHCG) Pre-Emergence Activity
# [2] = test system: Digitaria sanguinalis (DIGSA); assay: as above; details: rate 500 g/ha, evaluated 19, 20 or 21 days after spraying
# Procedure: as §1
# Lolium perenne (LOLPE) [3] = assay: as above; details: rate 500 g/ha, evaluated 19, 20 or 21 days after spraying
# Procedure: as §1
# Setaria faberi (SETFA) [4] = assay: as above; details: rate 500 g/ha, evaluated 19, 20 or 21 days after spraying
# Procedure: as §1
# [5] = test system: Echinochloa crus-galli (ECHCG); assay: as above; details: rate 500 g/ha, evaluated 19, 20 or 21 days after spraying
# Procedure: as §1
# Avena fatua (AVEFA) [6] = assay: as above; details: rate 500 g/ha, evaluated 19, 20 or 21 days after spraying
# Procedure: as §1
# [7] = test system: Alopecurus myosuroides (ALOMY); assay: Post-emergence activity, glasshouse pot test (100=total damage to plant; 0=no damage to plant); details: 336 h, evaluated 14 or 15 days after spraying; for pest or weed control at 500 g/ha: rate 500 g/ha
# Procedure: as §1, with “Post-Emergence” for “Pre-Emergence”
# [8] = test system: Digitaria sanguinalis (DIGSA); assay: as above; details: evaluated 14 or 15 days after spraying; for pest or weed control at 500 g/ha: rate 500 g/ha
# Procedure: as §1, with “Post-Emergence” for “Pre-Emergence”
# Lolium perenne (LOLPE) [9] = assay: as above; details: 336 h, evaluated 14 or 15 days after spraying; for pest or weed control at 500 g/ha: rate 500 g/ha
# Procedure: as §1, with “Post-Emergence” for “Pre-Emergence”
# Setaria faberi (SETFA) [10] = assay: as above; details: evaluated 14 or 15 days after spraying; for pest or weed control at 500 g/ha: rate 500 g/ha
# Procedure: as §1, with “Post-Emergence” for “Pre-Emergence”
# [11] = test system: Echinochloa crus-galli (ECHCG); assay: as above; details: evaluated 14 or 15 days after spraying; for pest or weed control at 500 g/ha: rate 500 g/ha
# Procedure: as §1, with “Post-Emergence” for “Pre-Emergence”
# Avena fatua (AVEFA) [12] = assay: as above; details: 336 h, evaluated 14 or 15 days after spraying; for pest or weed control at 500 g/ha: rate 500 g/ha
# Procedure: as §1, with “Post-Emergence” for “Pre-Emergence”
SMILES,pest or weed control at 500 g/ha [1] [%],pest or weed control at 500 g/ha [2] [%],pest or weed control at 500 g/ha (Lolium perenne (LOLPE) [3]) [%],pest or weed control at 500 g/ha (Setaria faberi (SETFA) [4]) [%],pest or weed control at 500 g/ha [5] [%],pest or weed control at 500 g/ha (Avena fatua (AVEFA) [6]) [%],pest or weed control at 500 g/ha [7] [%],pest or weed control at 500 g/ha [8] [%],pest or weed control at 500 g/ha (Lolium perenne (LOLPE) [9]) [%],pest or weed control at 500 g/ha (Setaria faberi (SETFA) [10]) [%],pest or weed control at 500 g/ha [11] [%],pest or weed control at 500 g/ha (Avena fatua (AVEFA) [12]) [%],pest or weed control at 125 g/ha ([7]; rate 125 g/ha) [%],pest or weed control at 125 g/ha ([8]; rate 125 g/ha) [%],pest or weed control at 125 g/ha (Lolium perenne (LOLPE) [9]; rate 125 g/ha) [%],pest or weed control at 125 g/ha (Setaria faberi (SETFA) [10]; rate 125 g/ha) [%],pest or weed control at 125 g/ha ([11]; rate 125 g/ha) [%],pest or weed control at 125 g/ha (Avena fatua (AVEFA) [12]; rate 125 g/ha) [%]
CCc1cc(C)cc(CC)c1C1=C(O)CC(C2CCCS(=O)(=O)C2)CC1=O (stereo not drawn) [Compound T19],100,100,100,100,100,90,80,100,80,100,100,90,–,–,–,–,–,–
CCc1cc(C)cc(CC)c1C1=C(O)CC(C2CCS(=O)(=O)CC2)CC1=O (stereo not drawn) [Compound T20],100,100,100,100,100,100,80,100,60,90,100,70,–,–,–,–,–,–
CCc1cc(C)cc(C)c1C1=C(O)CC(C2CCSCC2)CC1=O (stereo not drawn) [Compound T21],40,100,40,100,100,70,80,80,70,90,100,70,–,–,–,–,–,–
CCc1cc(C)cc(CC)c1C1=C(O)CC(C2CCC[S+]([O-])C2)CC1=O (stereo not drawn) [Compound T23],100,100,100,70,50,100,–,–,–,–,–,–,90,70,90,50,80,90
